This note sets out measurements from BindingDB's records for doi:10.1021/jm501787c (Duquesne University, 2015).

Assay [1] can be described thus: Binding affinity to human RFC expressed in Chinese hamster PC43-10 cells assessed as cell growth inhibition after 96 hrs by CellTiter-Blue assay.
Assay [2] can be described thus: Binding affinity to human FRalpha expressed in Chinese hamster RT16 cells assessed as cell growth inhibition after 96 hrs by CellTiter-Blue assay.
A short description of assay [3]: Binding affinity to human PCFT expressed in Chinese hamster R2/PCFT4 cells assessed as cell growth inhibition after 96 hrs by CellTiter-Blue assay.

For `Nc1nc2[nH]cc(Cc3ccc(C(=O)N[C@@H](CCC(=O)O)C(=O)O)s3)c2c(=O)[nH]1`, the IC50 in assay [1], in assay [2] and in assay [3] was more than 1000 nM in each case.
In the case of `Nc1nc2[nH]cc(CCc3ccc(C(=O)N[C@@H](CCC(=O)O)C(=O)O)s3)c2c(=O)[nH]1`, the IC50 in assay [1] is 60 nM; in assay [2], 550 nM; in assay [3], 80 nM.
For `Nc1nc2[nH]cc(CCCc3ccc(C(=O)N[C@@H](CCC(=O)O)C(=O)O)s3)c2c(=O)[nH]1`, in that order: 116 nM, 109 nM and 312 nM.
On to `Nc1nc2[nH]cc(CCCCc3ccc(C(=O)N[C@@H](CCC(=O)O)C(=O)O)s3)c2c(=O)[nH]1`, for which the half-maximal inhibitory concentration (IC50) in assay [1] worked out at 38 nM; in assay [2], 49 nM; in assay [3], 141 nM.
Taken in the same sequence, the figures for `Nc1nc2[nH]cc(CCCCCc3ccc(C(=O)N[C@@H](CCC(=O)O)C(=O)O)s3)c2c(=O)[nH]1` were 243 nM, 46 nM and 57 nM.
As to `Nc1nc2[nH]cc(CCCCCCc3ccc(C(=O)N[C@@H](CCC(=O)O)C(=O)O)s3)c2c(=O)[nH]1`, the 50% inhibitory concentration (IC50) in assay [1], in assay [2] and in assay [3] was more than 1000 nM in each case.
Turning to `Nc1nc2[nH]c(CCCCc3ccc(C(=O)N[C@@H](CCC(=O)O)C(=O)O)s3)cc2c(=O)[nH]1` [(S)-2-({5-[4-(2-Amino-4-oxo-4,7-dihydro-3H-pyrrolo[2,3-d]-pyrimidin-6-yl)-butyl]-thiophene-2-carbonyl}-amino)-pentanedioicAcid], the half-inhibitory concentration (IC50) in assay [1] was more than 1000 nM; in assay [2], 1.8 nM.
